Patent US11591331B2, “PARP1 inhibitors and uses thereof” (Xinthera, Inc., priority 2021, dated 2023)

Assays:
DLD-1 BRCA2(−/−) = test: Cell growth inhibition assay (CellTiter-Glo cell viability, 7 days); type: cell-based; conditions: Homo sapiens, 168 h, DLD-1 BRCA2(-/-) cells
DLD-1 parental = test: as above; type: cell-based; conditions: Homo sapiens, 168 h, DLD-1 parental cells
From the text: Example A: Cell Growth Inhibition Assay
The objective of this study is to evaluate the effect of invention compounds on cell proliferation through the cell viability assay in DLD-1 BRCA2(−/−) and parental isogenic pair and MDA-MB-436 (mutated BRCA1) cell lines. The CellTiter-Glo (CTG) based cell viability assay is designed to determine the number of viable cells in the culture because of compound effect, by quantifying ATP, which indicates the presence of metabolically active cells.
DLD-1 BRCA2(−/−) and parental isogenic pair were cultured in RPMI 1640 supplemented with 10% fetal bovine serum (FBS), and MDA-MB-436 cells were cultured in DMEM supplemented with 10% FBS. Both are culture at 37° C. with 5% CO2. Invention compounds were distributed to the 384 well plate (Corning, 3764) using Echo acoustic liquid handler to form a 1:3 serially diluted final concentration with top dose of 10 or 30 μM. The cells were seeded into the plate in the density of 50 cells/well (DLD-1 parental), 200 cells/well (DLD-1 BRCA2−/−), or 500 cells/well (MDA-MB-436). After a short spun, the cells were cultured in a well moisturized incubator at 37° C. with 5% CO2 for 7 days without disturbance. The cell viability was measured by CellTiter Glo 2.0 assay kit (Promega, G9243), and growth inhibition rate was calculated and plotted against final compound concentration, and the data were fitted in Xfit to generate IC50.

[1] = tested on: MDA-MB-436 (mutated BRCA1) cell lines; test: as above; type: cell-based; conditions: Homo sapiens, 168 h, MDA-MB-436 cells
[2] = In vitro human hepatic clearance in cellular relay format; type: in vitro ADME; conditions: cryopreserved hepatocytes in suspension (relay format); human hepatocytes relay, 5 incubations of 4 hrs, 0.5E+06 viable cells/mL
Procedure: (§1) Example C: In Vitro Human Hepatic Clearance in Cellular Relay Format
(§2) Working stocks of individual test articles were prepared at concentrations of 100 μM by diluting 10 mM stocks prepared in DMSO 100-fold (v:v) into ACN/1H2O (50/50, v:v). Human cryopreserved hepatocytes were thawed in a 37° C. water bath in <2 min., suspended in thawing media, and then centrifuged at 100×g for 10 min. Thawing media was aspirated, and pelleted hepatocytes were resuspended into incubation media at 1.5E+06 cells/mL. Cell viability was determined using an Acridine Orange/Propidium Iodine stain, and hepatocytes were further diluted with incubation media to 0.5E+06 viable cells/mL. Hepatocyte aliquots of 495 μL were added to wells of a 24-well plate, and test article incubations were initiated by the addition of 5 μL of 100 μM working stocks. Plates were incubated at 37° C. in a 5% CO2 atmosphere at 95% relative humidity on an orbital shaker at 300 rpm. Incubations were performed in duplicate. At time=0 and 4 hrs., aliquots of each incubation were extracted with 6 volumes ACN containing internal standards. After 4 hrs., hepatocytes were removed from the incubations via centrifugation, and supernatants were stored frozen until the following day at which point incubations were reinitiated by diluting thawed supernatants with freshly thawed hepatocytes in incubation media, again to a final concentration of 0.5E+06 viable cells/mL. These steps were repeated for a total of 5 incubations of 4 hrs. each covering 20 total hours of incubation. Incubational losses due to cellular uptake, nonspecific binding, and dilution at each relay step were corrected for. Supernatants of all incubation aliquots were diluted into ultrapure water prior to analysis via LC/MS/MS. In vitro intrinsic clearances (CLint) in μL/min/IE+06 cells were determined for each incubation from calculated in vitro half-lives determined using a standard log-linear regression approach. In vitro CLint values were scaled up using the following physiological scaling factors: 99E+06 cells/g human liver and 25.7 g human liver/kg body weight. Scaled intrinsic clearance values were finally introduced to the well-stirred liver model for the purpose of calculating predicted human hepatic clearance (CLhep,pred) in mL/min/kg assuming a human liver blood flow of 20.7 mL/min/kg and making no corrections for test article binding to red blood cells, plasma proteins, or components of the incubation system. S-Warfarin, Disopyramide and Diazepam were used as assay controls.

[3] = tested on: Human cryopreserved hepatocytes; test: as above; type: in vitro ADME; conditions: predicted human hepatic clearance, well-stirred liver model, scaled from in vitro CLint
Procedure: as §1, §2

EC50 (DLD-1 BRCA2(−/−)) [µM] | EC50 [1] [µM] | Clhep,pred [3] [mL/min/kg] | Compound | EC50 (DLD-1 parental) [µM] | half-life at 1 µM [2] [h]
0.0014 | 0.00063 | 1.67 | CCc1cc2ncc(CN3CCN(c4ccc(C(=O)NC)nc4C#N)CC3)cc2[nH]c1=O [Example 1, 6-cyano-5-{4-[(7-ethyl-6-oxo-5H-1,5-naphthyridin-3-yl)methyl]piperazin-1-yl}-N-methylpyridine-2-carboxamide] | 5000 | 32.5
0.0025 | 0.0014 | 0.53 | CCc1cc2ncc(CN3CCN(c4cnc(C(=O)NC)c(F)c4)CC3)cc2[nH]c1=O [Example 5, 5-(4-((7-ethyl-6-oxo-5,6-dihydro-1,5-naphthyridin-3-yl)methyl)piperazin-1-yl)-3-fluoro-N-methylpicolinamide] | 470 | 109

The remaining lines, values behind:

Compound | EC50 (DLD-1 BRCA2(−/−)) [µM] | EC50 [1] [µM] | Clhep,pred [3] [mL/min/kg] | EC50 (DLD-1 parental) [µM] | half-life at 1 µM [2] [h]
CCc1cc2ncc(CN3CCN(c4ccc(C(=O)NC)nc4)[C@H](C)C3)cc2[nH]c1=O [Example 2, 5-[(2R)-4-[(7-ethyl-6-oxo-5H-1,5-naphthyridin-3-yl)methyl]-2-methylpiperazin-1-yl]-N-methylpyridine-2-carboxamide] | 0.0048 | 0.004 | 1.71 | > 30 | 31.5
CNC(=O)c1ccc(N2CCN(Cc3cnc4cc(C5CC5)c(=O)[nH]c4c3)CC2)cn1 [Example 15, 5-{4-[(7-cyclopropyl-6-oxo-5H-1,5-naphthyridin-3-yl)methyl]piperazin-1-yl}-N-methylpyridine-2-carboxamide] | 0.0018 | 0.0013 | <0.9 | > 30 | > 62.1
O=C(NC1CC1)c1ccc(N2CCN(Cc3cnc4cc(C5CC5)c(=O)[nH]c4c3)CC2)cn1 [Example 24, N-cyclopropyl-5-{4-[(7-cyclopropyl-6-oxo-5H-1,5-naphthyridin-3-yl)methyl]piperazin-1-yl}pyridine-2-carboxamide] | 0.0025 | 0.0014 | <0.9 | > 30 | > 62.1
